Where “and” joins values, the source holds several entries; their conditions need not be identical. Identical values can stand only once. Like-named read-outs stand apart in the source and are kept apart here.
Key:
[1] = tested on: T. b. rhodesiense (STIB 900); test: In vitro trypanocidal assay (Alamar Blue); format: cell-based, Trypanosoma brucei rhodesiense
Procedure: (§1) 10 µL of Alamar Blue was added for the final 3 h to determine viability. […] The IC50 values were calculated from the sigmoidal inhibition curves. For cytotoxicity, 4×10^4/mL L-6 rat skeletal myoblast cells were used, and incubations and assessments carried out as above.

[2] = tested on: T. b. gambiense (STIB 930); test: In vitro trypanocidal assay (Alamar Blue); format: cell-based, Trypanosoma brucei gambiense; conditions: Trypanosoma brucei, 72 h; read-out: IC50
Procedure: Parasites were cultured with or without the test article at a concentration of 3×10^4/mL in Minimal Essential Medium, according to Baltz et al., with the following modifications: 0.2 mM 2-mercaptoethanol, 1 mM Na-pyruvate, 0.5 mM hypoxanthine and 15% heat inactivated horse serum at 37°C in 5% CO2 in 96-well microtitre plates for 72 h. 10 µL of Alamar Blue was added for the final 3 h to determine viability. The assay was assessed by reading the fluorescence in each well at an excitation wavelength of 536 nm and at an emission wavelength of 588 nm. The IC50 values were calculated from the sigmoidal inhibition curves. For cytotoxicity, 4×10^4/mL L-6 rat skeletal myoblast cells were used, and incubations and assessments carried out as above.

L-6 rat myoblast cells = test: Cytotoxicity assay; format: cell-based; conditions: 72 h, read-out: IC50
Procedure: as §1

in vivo = conditions: male, NMRI, mouse, po, 200 mg/kg/day
Procedure: The study was conducted according to the study protocol [1].
gavage daily for 5 consecutive days at a dose of 200 mg/kg in a 5 % tween 80/ 0.5 %
Formulation Preparation and Concentration Check
were prepared according to the procedure already developed [2]; a sufficient volume of each
suspension was prepared in order to support the 5-day repeated oral administration. The
suspensions were stored at +4°C. The supportive stability data for the Fexinidazole
suspension after 7 days at +4°C was performed.
a specific, not validated, HPLC-UV method [2]. Three samples were analyzed for each
Sample Collection and Handling
About 0.05-0.07 mL of blood/sampling time were taken from the saphenous vein using
heparinized tubes (pre-cooled in an ice/water bath) and were centrifuged at 10000g for 3
minutes at 4°C. The separated plasma was stored at -80°C until analysis. Blood was taken at
validated LC-MS-MS methods.
Pharmacokinetic Calculations
Pharmacokinetic evaluation was carried out using a non-compartmental approach with the
aid of the Watson package (v. 6.4.0.04, Thermo Fisher Scientific, Waltham, MA, USA).
For the calculations, pre-dose concentrations of both compounds were set equal to zero.
After both compounds, on Day 5, Cmax and tmax were read from the raw plasma data as the
coordinates of the highest measured concentration. The area under plasma concentration vs.
time curve to finite time, AUC0-t(last), was determined by the linear trapezoidal rule up to the
last detectable concentration. The half-life of the terminal phase, t1/2,z, was determined by
linear regression analysis of the natural-log concentration vs. time curve, where t1/2,z =
ln(2)/slope of the regression line.
Descriptive statistics (mean ± SD, %CV) were reported for plasma concentrations and
pharmacokinetic parameters sorted by compound.
reported to three significant figures.
Plasma concentrations of sulphoxide and sulphone Fexinidazole metabolites were determined
by a LC-MS-MS method. The lower limit of the bioanalytical method was 5 ng/mL (run 1)
(v. 6.4.0.04, Thermo Fisher Scientific, Waltham, MA, USA).
Pharmacokinetic evaluations of the sulphone and sulphoxide metabolites were carried out
using non-compartmental approach with the aid of the Watson package (v. 6.4.0.04, Thermo
Fisher Scientific, Waltham, MA, USA).
After both doses, for the calculations, the pre-dose concentrations of the metabolites were set
Cmax and tmax were read from raw data as the coordinates of the highest measured

rat liver cells = test: Ex vivo unscheduled DNA synthesis; format: in vivo; conditions: 10 mg/kg, positive control
Procedure: Groups of young male Sprague-Dawley rats received fexinidazole at doses of 500, 1000, or 2000 mg/kg orally, and the livers were sampled either 2–4 h or 12–14 h after administration. Hepatocyte suspensions were prepared and incubated in the presence of […] thymidine. Slides of fixed hepatocytes were coated in photographic emulsion and stored for 14 days at 4°C in the dark. The silver grains above the nuclei or cytoplasm (background) were counted, providing a measure of DNA uptake during DNA repair. The difference between these two counts indicated the extent of DNA repair (nuclear net grain count).

[3] = One-electron reduction potential by pulse radiolysis; format: physicochemical
Procedure: One-electron reduction potentials were determined by pulse radiolysis following an established procedure.

[4] = Trypanosoma brucei, 72 h; read-out: IC50

| Structure (SMILES) | IC50 [2] | IC50 (L-6 rat myoblast cells) | IC50 [1, 4] | other results |
| --- | --- | --- | --- | --- |
| CC1CS(=O)(=O)CCN1/N=C/c1ccc([N+](=O)[O-])o1 (centres unmarked) [Nifurtimox] | 0.31 µg/mL and 1.08 µM | 25 µg/mL and 87 µM |  | IC50 ([1]; Trypanosoma brucei, 72 h, read-out: IC50): 0.4 µg/mL and 1.44 µM; AUC(0-t) (in vivo): 45700 ± 5880 ng·h/mL; Cmax (in vivo): 9250 ± 765 ng/mL; Tmax (in vivo): 1.5 ± 1.32 h; half-life (in vivo): 3.12 ± 1.45 h |
| N=C(N)c1ccc(OCCCCCOc2ccc(C(=N)N)cc2)cc1 [Pentamidine] | 0.002 µg/mL and 10 nM | 3 µg/mL and 9 µM | 0.003 µg/mL and 9 nM |  |
| Cc1ccc(C(=O)Nc2ccc(S(=O)(=O)O)c3cc(S(=O)(=O)O)cc(S(=O)(=O)O)c23)cc1NC(=O)c1cccc(NC(=O)Nc2cccc(C(=O)Nc3cc(C(=O)Nc4ccc(S(=O)(=O)O)c5cc(S(=O)(=O)O)cc(S(=O)(=O)O)c45)ccc3C)c2)c1 [Suramin] |  | > 90 µg/mL and > 70 µM | 0.062 µg/mL and 46 nM |  |
| CN(C)N=O [dimethylnitrosamine, reference compound] |  |  |  | Net nuclear grain count (2–4 h) (rat liver cells): 8.9 |
| Cc1ncc([N+](=O)[O-])n1CCO [metronidazole, reference compound] |  |  |  | single electron redox potential [3]: −516 mV |

Reference: paper PMC3006138, “Fexinidazole – A New Oral Nitroimidazole Drug Candidate Entering Clinical Development for the Treatment of Sleeping Sickness” (PLoS Neglected Tropical Diseases, 2010)
